The text below walks through data of PMC5618791, “Double quick, double click reversible peptide “stapling”” (Chemical Science, 2017).

A short description of series [1]: Circular dichroism, % helicity. The class given is physicochemical. To be noted: CD, peptide 10-20 μM, calculated from MRE at 222 nm. The method, then: Samples were prepared in two different solvent systems (30% TFE:H2O, 30% CH3CN:water) to concentrations between 10 - 20 μM (Figure S 23). Considering the high number of hydrophobic residues in BID and S peptides, organic co-solvents were used to ensure good solubility and avoid aggregation at concentrations high enough for CD analyses. DMSO stocks of peptides were not used for CD due to its high absorbance below 230 nm.
The raw circular dichroism data obtained for the peptides was processed by the subtraction of the solvent signal and converted into a mean residue ellipticity:
Where = molar ellipticity[θ]MRE per residue, θ = circular dichroism at a given wavelength, c = molar concentration, l = path length in cm, R = number of residues in the peptide sequence.
Calculation of % helicity was performed by the following equation:[4]
Where: θH = Theoretical MRE for 100% helicity at 222 nm, θ0 = Theoretical MRE for 100% helicity at 222 nm at 0 °C = –44000, (∂θ/∂T) = temperature dependence of infinite helix = +250, T = temperature in °C, x = 3, Nr = number of residues in the peptide.
In both solvent systems, it is noteworthy that STA-peptides are more helical than RED-peptides or WT-peptides; with the exception of constrained S-Cys-peptides. The use of TFE as co-solvent in water enhances the α-helicity of both series of peptides compared to the use of acetonitrile in water. […]
thus bioactive) conformation. The S peptides show a low helix propensity which is consistent […]
Figure S 23: CD spectra A. and B. in 30% TFE:H 2O; C. and D. in 30% CH3CN:H 2O.
Table 1: Percentage of helicity in the three solvent systems […]
(also on this page, place not known: Molar residue ellipticity (deg.cm 2 .dmol -1 ) Molar residue ellipticity (deg.cm 2 .dmol -1 ) Molar residue ellipticity (deg.cm 2 .dmol -1 ) Molar residue ellipticity (deg.cm 2 .dmol -1 ) TFE:H2O; CH3CN:H2O.)

A further series addresses T1, RNase S protein (Bos taurus, UniProt P61823).
T1 construct: S protein 21-124; made in house; host or cells: proteolytic fragment of RNase A (subtilisin digestion)
T1 sequence (P61823 47-150): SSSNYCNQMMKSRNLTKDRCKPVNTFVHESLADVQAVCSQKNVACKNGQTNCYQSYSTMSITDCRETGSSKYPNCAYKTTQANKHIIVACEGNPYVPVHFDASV
Briefly: RNA degradation assay, restoration of S protein activity. Type of series: biochemical. To be noted: EtBr-labelled RNA, S peptides 0.1-2 μM, 50 mM Tris, 100 mM NaCl, pH 7.50, 60 min, room temperature, fluorescence, triplicate. The method, then: Fig. 5 Biophysical and bioactivity analyses of WT-S and S derived peptides 3–4a,c. (a) Circular dichroism spectra recorded in water (30% TFE); (b) RNA degradation assay showing the restoration of S protein activity. S protein was used as a negative control, and RNase A as a positive control. (50 mM Tris, 100 mM NaCl, pH 7.50).
RNase A (10 mg) in Hepes (600 µL, 100 mM; pH = 8.0) was digested by subtilisin (5 mg/mL, 10 µL) for 4 hrs at 0 °C. After which, the buffer was acidified with a solution of HCl (1 M) to reach pH = 3. The acidic solution was stirred for 1 h at 2 °C. The reaction was monitored by HPLC using the Jupiter µ Proteo 90 A analytical column using a gradient (0-60% over 30 min). […]
RNA degradation assays were performed in 96-well black plates (Greiner Bio-one). Each experiment was run in triplicate and the fluorescence was measured using a Perkin Elmer EnVisionTM 2103 MultiLabel plate reader, with an excitation and emission at 510 nm and at […]
The buffer used in this enzymatic assay was Tris buffer (50 mM of Tris, 100 mM of NaCl, pH = 7.5). The adequate quantity of buffer was first added to each well to reach a total volume of 200 µL (150 µL for controls, 149 µL for 0.1 µM of S peptides, 148 µL for 0.2 µM of S peptides, 145 µL for 0.5 µM of S peptides, 140 µL for 1 µM of S peptides, 130 µL for 2 µM of S peptides). […]

Positions of bridges follow the written chain, without caps; N, C: chain ends. Residues, ends and D or L forms follow the SMILES beside them.

As for `CSCC[C@H](NC(=O)[C@H](Cc1c[nH]cn1)NC(=O)[C@H](CCC(N)=O)NC(=O)[C@@H]1CSSC[C@H](NC(=O)[C@H](C)NC(=O)[C@H](C)NC(=O)[C@@H](NC(=O)[C@H](CCC(=O)O)NC(=O)[C@H](CCCCN)NC(C)=O)[C@@H](C)O)C(=O)N[C@@H](CCCCN)C(=O)N[C@@H](Cc2ccccc2)C(=O)N[C@@H](CCC(=O)O)C(=O)N1)C(=O)N[C@@H](CC(=O)O)C(=O)N[C@@H](CO)C(N)=O` [2c] (Ac-KETAACKFECQHMDS-NH2; disulfide 6-10), in series [1] (30% CH3CN:H2O), the “Percentage of helicity, 30% CH3CN:H2O” value was 0%. Further, the “Percentage of helicity, 30% TFE:H2O” value in series [1] (30% TFE:H2O) was 0%. In addition, at RNase S protein, the “Restoration of S protein (RNase) enzymatic activity” value is “failure to restore S protein activity”.
